Values quoted from earlier work, collected in paper PMC3292467, “Comparison between ^68Ga-bombesin (^68Ga-BZH3) and the cRGD tetramer ^68Ga-RGD4 studies in an experimental nude rat model with a neuroendocrine pancreatic tumor cell line” (EJNMMI Research, 2011).

Legend:
Details in all cases: background statement; no reference given; cited from earlier work
[1] = system: gastrin-releasing peptide receptor (GRP-r, also known as BB2)
From the text: (§1) Objectives Receptor scintigraphy gains more interest for diagnosis and treatment of tumors, in particular for neuroendocrine tumors (NET). We used a pan-Bombesin analog, the peptide DOTA-PEG2-[D-tyr^6, β-Ala^11, Thi^13, Nle^14] BN(6-14) amide (BZH3). BZH3 binds to at least three receptor subtypes: the BB1 (Neuromedin B), BB2 (Gastrin-releasing peptide, GRP), and BB3. Imaging of ανβ3 integrin expression playing an important role in angiogenesis and metastasis was accomplished with a ^68Ga-RGD tetramer. […] We have reported ^68Ga-labeled bombesin may be helpful for diagnostic reasons in a subgroup of patients ...

[2] = system: bombesin receptor subtype (BB3)
From the text: as §1

BB1 (Neuromedin B) = system: BB1 (Neuromedin B)
From the text: as §1

| Substance | binding/affinity for BB2 [1] | binding/affinity for BB3 [2] | binding/affinity for BB1 (BB1 (Neuromedin B)) |
| --- | --- | --- | --- |
| Bombesin [reference compound] | high affinity | high affinity | high affinity |
| DOTA-PEG2-[D-Tyr^6 -β-Ala^11 -Thi^13 -Nle^14 ]BN(6-14) amide [BZH3, pan-Bombesin analog, unlabelled precursor] | binds | binds | binds |
